Source: patent publication US6756233B1, “Method for measuring free ligands in biological fluids, and assay kits for measuring same” (priority 1985, dated 2004)
Where “and” joins values, the source holds several entries; their conditions need not be identical. Identical values can stand only once. Like-named read-outs stand apart in the source and are kept apart here.

Experiments:
[1] = molecular target: T1, sex hormone-binding globulin (SHBG) (Homo sapiens, UniProt P04278); assay: Free testosterone assay, SHBG-spiked serum pool (Example 3); details: charcoal-absorbed human serum pool spiked with 400 μg SHBG/milliliter
T1 sequence (P04278 30-402): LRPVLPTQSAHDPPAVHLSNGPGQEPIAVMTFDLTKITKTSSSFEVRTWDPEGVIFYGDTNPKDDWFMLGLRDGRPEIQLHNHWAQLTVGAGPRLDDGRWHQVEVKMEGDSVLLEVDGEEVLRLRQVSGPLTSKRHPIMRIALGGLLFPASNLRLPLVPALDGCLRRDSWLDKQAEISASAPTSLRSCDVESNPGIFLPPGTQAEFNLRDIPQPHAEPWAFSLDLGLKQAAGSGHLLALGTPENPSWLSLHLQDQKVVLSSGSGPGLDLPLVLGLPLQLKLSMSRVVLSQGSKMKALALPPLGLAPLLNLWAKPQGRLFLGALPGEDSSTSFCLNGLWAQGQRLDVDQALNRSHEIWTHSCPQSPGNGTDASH
Method: To investigate the effect of sex hormone-binding globulin (SHBG) levels on the free testosterone assay system, a charcoal-absorbed human serum pool was spiked with 400 μg SHBG/milliliter, a level which is approximately 10 times normal.
Since charcoal absorption removes testosterone from the serum pool, it should have free (and total) testosterone concentrations of zero—that is, percent bound values of approximately 100% B/Bo—both before and after spiking.

transport proteins = details: single samples
Method: Free testosterone calibrators, prepared by adding different amounts of testosterone to human serum free of any apparent testosterone, were calibrated by direct equilibrium dialysis and assigned free testosterone values in pg/ml. […] The tubes are incubated for 4 hours at 37° C., then decanted and radioactivity counted. Results are computed by interpolation to from the calibration curve.

albumin [2] = molecular target: T2, albumin (Homo sapiens, UniProt P02768); details: cited from earlier work
albumin and/or SHBG = tested on: albumin and/or SHBG; design: species or system human
Method: Testosterone was selected as a representative member of this family. […] This analog tracer was subsequently compounded in 0.01 M HEPES buffer, pH=7.4, containing 1 mg/ml charcoal-absorbed human serum albumin and 0.01% sodium azide. Blocking agents were added, as described in the specific examples below.

albumin [3] = molecular target: T2, albumin; assay: Free testosterone assay, effect of oleic acid (Example 6); design: from tissue; host or cells: patient serum samples
Method: Since non-esterified free fatty acids (NEFA) have a higher association constant to albumin than does testosterone, addition of NEFA should displace free testosterone from albumin. This was confirmed by an experiment in which various amounts of oleic acid were added to each of three patient samples.

[4] = tested on: anti-T4 antibody-coated tubes; assay: Free T4 assay of 20 samples with tracers holding different blocking agents (Example 5); design: species or system rabbits
Method: The tubes are then incubated for 60 minutes at 37° C. After this incubation the tubes are decanted and the bound radioactivity is counted. Results are calculated from the calibration curve and expressed in ng/dl.
Iodinated T4 analog was compounded as described above and divided into five aliquots. To each aliquot the following reagents were added.
Considering tracer 1 as the reference and comparing the others to it, the following results were obtained.

T2 sequence (P02768 25-609): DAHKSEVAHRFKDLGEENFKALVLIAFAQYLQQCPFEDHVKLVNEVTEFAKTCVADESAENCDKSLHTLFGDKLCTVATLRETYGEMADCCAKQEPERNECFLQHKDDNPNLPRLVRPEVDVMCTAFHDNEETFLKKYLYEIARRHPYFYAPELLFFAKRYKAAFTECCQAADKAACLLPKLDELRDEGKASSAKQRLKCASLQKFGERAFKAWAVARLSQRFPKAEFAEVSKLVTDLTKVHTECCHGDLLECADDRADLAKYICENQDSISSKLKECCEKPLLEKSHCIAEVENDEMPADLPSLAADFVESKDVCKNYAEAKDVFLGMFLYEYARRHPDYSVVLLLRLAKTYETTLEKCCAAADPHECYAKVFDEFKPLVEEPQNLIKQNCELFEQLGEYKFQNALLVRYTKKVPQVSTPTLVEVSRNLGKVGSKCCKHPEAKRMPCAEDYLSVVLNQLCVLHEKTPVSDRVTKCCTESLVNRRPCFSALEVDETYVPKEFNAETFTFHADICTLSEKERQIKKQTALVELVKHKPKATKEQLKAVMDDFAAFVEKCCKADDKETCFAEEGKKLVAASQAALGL

6-hydroxytestosterone-19-carboxymethyl ether histamine
binding to endogenous binders (endogenous binders): does not bind to endogenous binders | percent bound value, B/Bo [1]: 99% | percent bound (% B/Bo) After charcoal absorption (transport proteins; 3rd Trimester): 99% and 96% and 97% | percent bound (% B/Bo) After charcoal absorption (transport proteins; Normal Females): 105% and 104%

O=[N+]([O-])c1ccc(O)c([N+](=O)[O-])c1 [2,4-dinitrophenol]
association constant, albumin (single aromatic compounds) (albumin [2]): 11,000 | effect on protein-bound testosterone and tracer (albumin and/or SHBG): displace testosterone from albumin and/or SHBG

O=S(=O)(O)c1cccc2cccc(Nc3ccccc3)c12 [ANS, 8-anilino-1-naphthalenesulfonic acid]
effect on protein-bound testosterone and tracer (albumin and/or SHBG): displace testosterone from albumin and/or SHBG

CCCCCCCC/C=C\CCCCCCCC(=O)O [oleic acid]
apparent free testosterone level, Mean (albumin [3]; Oleic Acid Added 2.5 mmol/l): 7.9 pg/mL | apparent free testosterone level, Mean (albumin [3]; Oleic Acid Added 5.0 mmol/l): 14.8 pg/mL | apparent free testosterone level, Patients 1-3 (albumin [3]; Oleic Acid Added 5.0 mmol/l): 11.6 pg/mL and 11.1 pg/mL and 21.8 pg/mL | apparent free testosterone level, Mean (albumin [3]; Oleic Acid Added 7.5 mmol/l): 23.2 pg/mL | apparent free testosterone level, Mean (albumin [3]; Oleic Acid Added 10.0 mmol/l): 32.0 pg/mL | oleic acid concentration in the tracer that displaces bound unlabeled T4 from albumin [4]: greater than 1.0 mmol/l

O=C1OC(c2ccc(O)c(S(=O)(=O)O)c2)(c2ccc(O)c(S(=O)(=O)O)c2)c2c(Br)c(Br)c(Br)c(Br)c21 [sulfobromophthalein]
effect on protein-bound testosterone and tracer (albumin and/or SHBG): inhibits the binding of the analog tracer to albumin without displacing testosterone bound to albumin
